Laboratory results: patent publication US8455473B2, “Composition and method for irrigation of a prepared dental root canal” (The University of British Columbia, priority 2008, dated 2013)

Tests used:
enterococci = settings: saturated calcium hydroxide solution (pH≧12.5), in vitro; cited from earlier work
yeasts = settings: saturated calcium hydroxide solution (pH≧12.5), in vitro; cited from earlier work
[1] = test system: Enterococcus faecalis A197A; assay type: cell-based; settings: all exposure times (5 seconds, 30 seconds, 3 minutes); detection level 99.995% killing
Experimental: The antibacterial activity of the composition was evaluated by exposing a planktonic culture (in suspension) of Enterococcus faecalis A197A, a resistant bacterial species often isolated from treatment resistant endodontic infections (root canal infections). In the evaluation, cultures were exposed for 5 seconds, 30 seconds, and 3 minutes. Detection level was at 99.995% killing.

Compound | time to kill enterococci (enterococci) | time to kill yeasts (yeasts) | survival of Enterococcus faecalis A197A (cfu %) [1]
[Ca+2].[OH-].[OH-] [calcium hydroxide, Calcium hydroxide] | ≤ 20 min | ≤ 6 h | –
O=C(O)CN(CCN(CC(=O)O)CC(=O)O)CC(=O)O [17% EDTA, ethylenediamine tetraacetic acid] | – | – | 100%
